Assay results: publication PMC7539012, “Hyperphosphorylated tau aggregation and cytotoxicity modulators screen identified prescription drugs linked to Alzheimer's disease and cognitive functions” (Scientific Reports, 2020)
Where a name gives a salt, the structure may show the parent alone.

Each molecule was assayed on T1, 1N4R p-tau (assay: p-tau aggregation modulator screen of 1280-compound library (ThS fluorescence net change over 16 h)). Conditions: not given.
T1 construct: made in house; host or cells: E. coli (PIMAX system)
Assay type: biochemical
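Note: 30 µM compound with 6 µM p-tau over 16 h.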

Compared with `C=C(NC(=O)C(=C)NC(=O)c1csc(C2=N[C@@H]3c4csc(n4)[C@H]4NC(=O)c5csc(n5)[C@H]([C@](C)(O)[C@@H](C)O)NC(=O)[C@H]5CSC(=N5)/C(=C/C)NC(=O)[C@H]([C@@H](C)O)NC(=O)c5csc(n5)[C@]3(CC2)NC(=O)[C@H](C)NC(=O)C(=C)NC(=O)[C@H](C)NC(=O)[C@H]([C@@H](C)CC)N[C@@H]2C=Cc3c([C@H](C)O)cc(nc3[C@H]2O)C(=O)O[C@@H]4C)n1)C(N)=O` [Thiostrepton], `Cc1ccc(O)c([C@H](CCN(C(C)C)C(C)C)c2ccccc2)c1` [Tolterodine tartrate] is lower in ThS net change: 503 for the first, 422 for the second.

First: N[C@@H]1C[C@H]1c1ccccc1 [Tranylcypromine hydrochloride]
Second: CN(C)CCCN1c2ccccc2Sc2ccc(C(F)(F)F)cc21 [Triflupromazine hydrochloride]
The ThS net change of the first is higher: 377 for the first, 280 for the second.

Same assay, conditions: 1280-compound library screen; ThS fluorescence net change over 16 h

Going from `CCCCNc1ccc(C(=O)OCCN(C)C)cc1.Cl` [Tetraca?ne hydrochloride] to `CCCCNC(=O)NS(=O)(=O)c1ccc(C)cc1` [Tolbutamide], the ThS net change falls from 401 to 392.

Going from `Cn1cnc2c1c(=O)[nH]c(=O)n2C` [Theobromine] to `Cn1c(=O)c2[nH]cnc2n(C)c1=O` [Theophylline monohydrate], the ThS net change rises from 392 to 398.

Going from `Cc1ncc(C[n+]2csc(CCO)c2C)c(N)n1` [Thiamine hydrochloride] to `Nc1nc(=S)c2ncn([C@@H]3O[C@H](CO)[C@@H](O)[C@H]3O)c2[nH]1` [Thioguanosine], the ThS net change rises from 383 to 385.

Going from `CS(=O)(=O)c1ccc([C@@H](O)[C@@H](CO)NC(=O)C(Cl)Cl)cc1` [Thiamphenicol] to `CC(C(=O)O)c1ccc(C(=O)c2ccccc2)s1` (stereo not shown) [Tiaprofenic acid], the ThS net change rises from 380 to 381.

Compared with `CCS(=O)(=O)CCn1c([N+](=O)[O-])cnc1C` [Tinidazole], `CC(CN(C)C)CN1c2ccccc2CCc2ccccc21.O=C(O)/C=C\C(=O)O` (stereo not shown) [Trimipramine maleate salt] is higher in ThS net change: 392 for the first, 399 for the second.

Going from `Clc1ccc2nsnc2c1NC1=NCCN1` [Tizanidine HCl] to `CSc1nc2cc(Cl)c(Oc3cccc(Cl)c3Cl)cc2[nH]1` [Triclabendazole], the ThS net change falls from 386 to 382.

First: Cc1cccc(C)c1NC(=O)C(C)N (stereo not shown) [Tocainide hydrochloride]
Second: Cc1c(Cl)cccc1Nc1ccccc1C(=O)O [Tolfenamic acid]
The ThS net change of the first is higher: 412 for the first, 383 for the second.

Compared with `CC1(C)O[C@@H]2[C@@H](CO[C@@]3(COS(N)(=O)=O)OC(C)(C)O[C@@H]23)O1` [Topiramate], `COc1cc(C(=O)N2CCOCC2)cc(OC)c1OC` [Trimetozine] is higher in ThS net change: 392 for the first, 404 for the second.

First: CN(C)CCOc1ccc(/C(=C(/CCCl)c2ccccc2)c2ccccc2)cc1 [Toremifene]
Second: COc1ccc(/C=C/C(=O)Nc2ccccc2C(=O)O)cc1OC [Tranilast]
The ThS net change of the first is higher: 406 for the first, 392 for the second.

First: NC[C@H]1CC[C@H](C(=O)O)CC1 [Tranexamic acid]
Second: CC[N+](CC)(CC)CCC(O)(c1ccccc1)C1CCCCC1.[Cl-] (stereo not shown) [Tridihexethyl chloride]
The ThS net change of the first is higher: 409 for the first, 402 for the second.

`Cc1cc2cc3c(C)cc(=O)oc3c(C)c2o1` [Trioxsalen] was tested, and the ThS net change was 390.

Same assay, conditions: 1280-compound library screen; […]

Compared with `O.O=C1C(O)=C(O)C(=O)C(O)=C1O` [Tetrahydroxy-1,4-quinone hydrate], `Oc1cc(Cl)ccc1Oc1ccc(Cl)cc1Cl` [Triclosan] is higher in ThS net change: 391 for the first, 398 for the second.

Compared with `S=C(NC1CCCCC1)N1CCC(c2cnc[nH]2)CC1` [Thioperamide maleate], `C(#CCN1CCCC1)CN1CCCC1.Cl.Cl` [Tremorine dihydrochloride] is higher in ThS net change: 385 for the first, 391 for the second.

First: C#C[C@]1(O)CC[C@H]2[C@@H]3[C@H](C)CC4=C(CCC(=O)C4)[C@H]3CC[C@@]21C [Tibolone]
Second: CC1(C)S[C@@H]2[C@H](NC(=O)[C@H](C(=O)O)c3ccsc3)C(=O)N2[C@H]1C(=O)O [Ticarcillin sodium]
The ThS net change of the first is lower: 381 for the first, 407 for the second.

First: CNCC[C@@H](Oc1ccccc1C)c1ccccc1 [Tomoxetine hydrochloride]
Second: CCC(COC(=O)c1cc(OC)c(OC)c(OC)c1)(c1ccccc1)N(C)C (stereo not shown) [Trimebutine]
The ThS net change of the first is lower: 389 for the first, 406 for the second.

Same assay, conditions: library screen, ThS fluorescence net change over 16 h with p-tau

Compared with `CN(C)[C@@H]1C(O)=C(C(N)=O)C(=O)[C@@]2(O)C(O)=C3C(=O)c4c(O)cccc4[C@@](C)(O)[C@H]3C[C@@H]12` [Tetracycline hydrochloride], `C[C@]12C=CC(=O)C=C1CC[C@H]1[C@@H]3C[C@@H](O)[C@](O)(C(=O)CO)[C@@]3(C)C[C@H](O)[C@@]12F` [Triamcinolone] is higher in ThS net change: 202 for the first, 259 for the second.

First: CCSc1ccc2c(c1)N(CCCN1CCN(C)CC1)c1ccccc1S2.O=C(O)CC(O)C(=O)O.O=C(O)CC(O)C(=O)O [Thiethylperazine dimalate]
Second: CN1CCN(CCCN2c3ccccc3Sc3ccc(C(F)(F)F)cc32)CC1 [Trifluoperazine dihydrochloride]
The ThS net change of the first is higher: 317 for the first, 299 for the second.

Compared with `CN1CCN(CCCN2c3ccccc3Sc3ccc(S(=O)(=O)N(C)C)cc32)CC1.CS(=O)(=O)O.CS(=O)(=O)O` [Thioproperazine dimesylate], `CSc1ccc2c(c1)N(CCC1CCCCN1C)c1ccccc1S2` (stereo not shown) [Thioridazine hydrochloride] is lower in ThS net change: 314 for the first, 252 for the second.

Going from `CCCCCCCCCCCCCCCC[N+](C)(C)CCN(Cc1ccc(OC)cc1)c1ncccn1` [Thonzonium bromide] to `COc1cc(C(=O)NCc2ccc(OCCN(C)C)cc2)cc(OC)c1OC` [Trimethobenzamide hydrochloride], the ThS net change rises from 312 to 322.

First: N[C@@H](Cc1cc(I)c(Oc2cc(I)c(O)c(I)c2)c(I)c1)C(=O)O [Thyroxine (L)]
Second: Cc1ccc(C(=O)c2cc(O)c(O)c([N+](=O)[O-])c2)cc1 [Tolcapone]
The ThS net change of the first is higher: 301 for the first, 214 for the second.

First: Clc1ccc(C(Cn2ccnc2)OCc2ccsc2Cl)c(Cl)c1 (stereo not shown) [Tioconazole]
Second: O=c1n(CCCN2CCN(c3cccc(Cl)c3)CC2)nc2ccccn12 [Trazodone hydrochloride]
The ThS net change of the first is lower: 309 for the first, 316 for the second.

With `Cc1cccc(N(C)C(=S)Oc2ccc3ccccc3c2)c1` [Tolnaftate] the ThS net change was 219.

Same assay, conditions: p-tau aggregation modulator screen of 1280-compound library; ThS fluorescence net change

Compared with `c1ccc2c(c1)CCCC2C1=NCCN1` (stereo not shown) [Tetrahydrozoline hydrochloride], `c1ccc(CC2=NCCN2)cc1` [Tolazoline hydrochloride] is lower in ThS net change: 362 for the first, 360 for the second.

First: c1ccc(C2CN3CCSC3=N2)cc1 (stereo not shown) [Tetramisole hydrochloride]
Second: c1ccc2[nH]c(-c3cscn3)nc2c1 [Tiabendazole]
The ThS net change of the first is higher: 368 for the first, 355 for the second.

Compared with `O=C1CCC(N2C(=O)c3ccccc3C2=O)C(=O)N1` (stereo not shown) [Thalidomide], `Cl.NC1CCN(c2nc3c(cc2F)c(=O)c(C(=O)O)cn3-c2ccc(F)cc2F)C1` (stereo not shown) [Tosufloxacin hydrochloride] is higher in ThS net change: 334 for the first, 354 for the second.

First: CCN(CC)CCNC(=O)c1cc(S(C)(=O)=O)ccc1OC [Tiapride hydrochloride]
Second: CCOC(=O)NNc1nncc2ccccc12 [Todralazine hydrochloride]
The ThS net change of the first is higher: 349 for the first, 334 for the second.

Compared with `NC[C@H]1O[C@H](O[C@H]2[C@H](O)[C@@H](O[C@H]3O[C@H](CO)[C@@H](O)[C@H](N)[C@H]3O)[C@H](N)C[C@@H]2N)[C@H](N)C[C@@H]1O` [Tobramycin], `Cc1ccc(C(=O)c2ccc(CC(=O)O)n2C)cc1` [Tolmetin sodium salt dihydrate] is higher in ThS net change: 360 for the first, 364 for the second.

Going from `Nc1nc(N)c2nc(-c3ccccc3)c(N)nc2n1` [Triamterene] to `COc1cc(Cc2cnc(N)nc2N)cc(OC)c1OC` [Trimethoprim], the ThS net change rises from 354 to 360.

First: NS(=O)(=O)c1cc2c(cc1Cl)NC(C(Cl)Cl)NS2(=O)=O (stereo not shown) [Trichlormethiazide]
Second: CC(=O)Oc1cc(C(F)(F)F)ccc1C(=O)O [Triflusal]
The ThS net change of the first is higher: 375 for the first, 343 for the second.

Going from `CC(CN(C)C)CN1c2ccccc2Sc2ccccc21.CC(CN(C)C)CN1c2ccccc2Sc2ccccc21.O=C(O)C(O)C(O)C(=O)O` (stereo not shown) [Trimeprazine tartrate] to `CN1C(=O)OC(C)(C)C1=O` [Trimethadione], the ThS net change falls from 354 to 346.

Same assay, conditions: p-tau aggregation modulator screen of 1280-compound library; […]

First: COc1c(O[C@@H]2O[C@H](CO)[C@@H](O)[C@H](O)[C@H]2O)cc2c(c1OC)-c1ccc(SC)c(=O)cc1[C@@H](NC(C)=O)CC2 [Thiocolchicoside]
Second: COc1ccc(CN2CCNCC2)c(OC)c1OC [Trimetazidine dihydrochloride]
The ThS net change of the first is higher: 370 for the first, 365 for the second.

First: COc1cccc([C@@]2(O)CCCC[C@@H]2CN(C)C)c1.Cl [Tramadol hydrochloride]
Second: COP(=O)(OC)C(O)C(Cl)(Cl)Cl (stereo not shown) [Trichlorfon]
The ThS net change of the first is higher: 373 for the first, 340 for the second.

Same assay, conditions: p-tau aggregation modulator screen of the compound library, ThS fluorescence net change

First: O=C(O)CNC(=O)C(CS)Cc1ccccc1 (stereo not shown) [Thiorphan]
Second: CN(C)CCN(Cc1ccccc1)c1ccccn1 [Tripelennamine hydrochloride]
The ThS net change of the first is higher: 462 for the first, 414 for the second.

First: CC(C)(C)NC[C@H](O)COc1nsnc1N1CCOCC1.O=C(O)/C=C\C(=O)O [Timolol maleate salt]
Second: CCCCNc1c(C(=O)OCC)c(C)nc2c1cnn2CC.Cl [Tracazolate hydrochloride]
The ThS net change of the first is lower: 414 for the first, 440 for the second.

First: Cc1ccc(S(=O)(=O)NC(=O)NN2CCCCCC2)cc1 [Tolazamide]
Second: Cc1cccc(Nc2ccncc2S(=O)(=O)NC(=O)NC(C)C)c1 [Torsemide]
The ThS net change of the first is higher: 458 for the first, 455 for the second.

Compared with `Cc1cc(-n2c(=O)[nH]c(=O)n(C)c2=O)ccc1Oc1ccc(SC(F)(F)F)cc1` [Toltrazuril], `O=c1[nH]c(=O)n([C@H]2C[C@H](O)[C@@H](CO)O2)cc1C(F)(F)F` [Trifluridine] is lower in ThS net change: 511 for the first, 463 for the second.

First: CC[C@@]1(O)C(=O)OCc2c1cc1n(c2=O)Cc2cc3c(CN(C)C)c(O)ccc3nc2-1 [Topotecan]
Second: CCOC1O[C@H]([C@@H](COCc2ccccc2)OCc2ccccc2)[C@H](OCc2ccccc2)[C@H]1O (stereo partly shown) [Tribenoside]
The ThS net change of the first is higher: 5499 for the first, 690 for the second.
